# Tested on: Wiga rats
# Experiment: Reserpine interaction test in rats
# Format: in vivo, rat
# Conditions: PO, Time 60, reserpine 10 mg/kg SC, -1 h
row,SMILES,ED50 reversal of reserpine-induced ptosis [mg/kg]
1,Cc1cc(-c2cnn3c2C(=O)N(c2ccc(C(F)(F)F)cc2)CC3(C)C)ccn1 [compound 171],5

# Same assay, conditions: Rattus norvegicus, PO, Time 60, reserpine 10 mg/kg SC, -1 h, read-out: ED50 reversal of reserpine-induced ptosis
row,SMILES,ED50 [mg/kg]
1,CNc1cc(-c2cnn3c2C(=O)N(c2ccc(C(F)(F)F)cc2)C[C@@H]3C)ccn1 [compound 147],7.94
2,COc1cc(Cl)ccc1N1CC(C)n2ncc(-c3ccnc(C)c3)c2C1=O (stereo not shown) [compound 161],3.15
3,Cc1cc(-c2cnn3c2C(=O)N(c2ccc(Cl)cc2Cl)C[C@@H]3C)ccn1 [compound 167],0.1
4,Cc1cc(-c2cnn3c2C(=O)N(c2ccc(Cl)cc2C)CC3C)ccn1 (stereo not shown) [compound 172],1.26
5,Cc1cc(-c2cnn3c2C(=O)N(c2ccc(C(F)(F)F)cn2)CC3C)cc(C)n1 (stereo not shown) [compound 194],5
6,CCOc1ccc(Cl)c(N2CC(C)n3ncc(-c4ccnc(C)c4)c3C2=O)n1 (stereo not shown) [compound 195],1.25

# Source: patent US10584129B2, “Substituted 6,7-dihydropyrazolo[1,5-a]pyrazines as negative allosteric modulators of mGluR2 receptors” (Janssen Pharmaceutica NV, priority 2013, dated 2020)
